Measurements published in patent US12606538B2, “Benzo[b]selenophene sting regulator, preparation method and use thereof” (CHINA PHARMACEUTICAL UNIVERSITY, priority 2021, dated 2026).
Converted amounts (≈) assume the structure as drawn.

System: not listed separately
Test: Stability of human plasma within 24 h
Type: in vitro ADME
Settings: stability of human plasma within 24 h
Text: (§1) The test result was shown in the following table, with MSA2 (Science. 2020, 369, eaba6098) as a reference compound.

SMILES | hPlasma @ 24 h (%)
COc1cc2cc(C(=O)CCC(=O)O)[se]c2cc1OC [I-1, 4-(5,6-dimethoxybenzo[b]selenophene-2-yl)-4-oxobutanoic acid] | >90
COc1cc2cc(C(=O)CC(C)C(=O)O)[se]c2cc1OC (stereo not drawn) [I-2, 4-(5,6-dimethoxybenzo[b]selenophene-2-yl)-2-methyl-4-oxo-butanoic acid] | >90
CCC(CC(=O)c1cc2cc(OC)c(OC)cc2[se]1)C(=O)O (stereo not drawn) [I-14, 4-(5,6-dimethoxybenzo[b]selenophene-2-yl)-2-ethyl-4-oxo-butanoic acid] | >90

System: not listed separately
Test: LogP
Type: physicochemical
Settings: read-out: LogP
Text: as §1

SMILES | logP
COc1cc2cc(C(=O)CCC(=O)O)[se]c2cc1OC [I-1, 4-(5,6-dimethoxybenzo[b]selenophene-2-yl)-4-oxobutanoic acid] | 2.5
COc1cc2cc(C(=O)CC(C)C(=O)O)[se]c2cc1OC (stereo not drawn) [I-2, 4-(5,6-dimethoxybenzo[b]selenophene-2-yl)-2-methyl-4-oxo-butanoic acid] | 2.4
CCC(CC(=O)c1cc2cc(OC)c(OC)cc2[se]1)C(=O)O (stereo not drawn) [I-14, 4-(5,6-dimethoxybenzo[b]selenophene-2-yl)-2-ethyl-4-oxo-butanoic acid] | 2.7

System: THP1-dual cells
Test: Luciferase assay based on THP1-dual cells
Type: cell-based
Settings: final concentration of compound 10 μL (so in the source), 24 h at 37° C.
Description: (§2) THP1-dual™ (Invivogen: thpd-nfis) cells or RAW-Lucia™ (Invivogen: rawl-isg) cells were diluted using a culture medium, and 180 μL of cell suspension was sucked and inoculated in a 96-well plate, such that each well contain 1×10^5 cells. 20 μL of a compound to be tested was added into the 96-well plate (the final concentration of said compound was […], and the final volume of each well was […]) and cultured at 37° C. for 24 h. 10 μL of supernatant was sucked into a new 96-well white plate, and 50 μL of a QUANT-Luc reagent was added. After full and even mixing, a microplate reader was used immediately for determination. There were three repeated wells set in the assay. The test result was represented as agitation fold and calculated by (test well−blank well)/(negative well−blank well). The test result was in the following tablet, with 2′,3′-cGAMP as a positive control, where *** represented an agitation fold of 20 or more, ** represented an agitation fold of 10 to 20, and * represented an agitation fold of 1 to 10.

SMILES | Agitation activity in luciferase assay, THP1-dual (agitation fold)
COc1cc2cc(C(=O)CCC(=O)O)[se]c2cc1OC [I-1, 4-(5,6-dimethoxybenzo[b]selenophene-2-yl)-4-oxobutanoic acid] | *** (*** represented an agitation fold of 20 or more)
COc1cc2cc(C(=O)CC(C)C(=O)O)[se]c2cc1OC (stereo not drawn) [I-2, 4-(5,6-dimethoxybenzo[b]selenophene-2-yl)-2-methyl-4-oxo-butanoic acid] | *** (*** represented an agitation fold of 20 or more)
CCC(CC(=O)c1cc2cc(OC)c(OC)cc2[se]1)C(=O)O (stereo not drawn) [I-14, 4-(5,6-dimethoxybenzo[b]selenophene-2-yl)-2-ethyl-4-oxo-butanoic acid] | *** (*** represented an agitation fold of 20 or more)

System: THP1 cells
Test: THP1 cell growth inhibition activity
Type: cell-based
Settings: Homo sapiens, THP-1
Text: as §1

SMILES | IC50 [µM]
COc1cc2cc(C(=O)CCC(=O)O)[se]c2cc1OC [I-1, 4-(5,6-dimethoxybenzo[b]selenophene-2-yl)-4-oxobutanoic acid] | > 100
COc1cc2cc(C(=O)CC(C)C(=O)O)[se]c2cc1OC (stereo not drawn) [I-2, 4-(5,6-dimethoxybenzo[b]selenophene-2-yl)-2-methyl-4-oxo-butanoic acid] | > 100
CCC(CC(=O)c1cc2cc(OC)c(OC)cc2[se]1)C(=O)O (stereo not drawn) [I-14, 4-(5,6-dimethoxybenzo[b]selenophene-2-yl)-2-ethyl-4-oxo-butanoic acid] | > 100

System: THP1 cells
Test: Interferon β induction assay based on THP1 cells (ELISA)
Type: cell-based
Settings: Homo sapiens, THP-1, compound 20 μM, 3.5 h, read-out: Secretion of IFNβ in THP1 cells, effect relative to 2′,3′-cGAMP at 20 μM (%)
Description: Secreted cytokine IFNβ was determined by ELISA. THP1 cells were inoculated in a 96-well plate (there was no serum contained in an RPMI 1640 medium), such that the number of cells in each well ranged from 5×10^5 to 7×10^5. A DMSO stock solution of 10 mM was prepared from a compound to be tested, diluted with a culture medium to a target concentration to be added into the 96-well plate containing cells (the final concentration of said compound was 20 μM, and the final volume of each well was 200 μL), and cultured at 37° C. in 5% CO2 for 3.5 h. The cells were collected at 4° C. and centrifuged at 1,000 rpm for 20 mins, and supernate was collected for ELISA determination. There were three repeated wells set in the assay. The result was shown in the following tablet, with 2′,3′-cGAMP as a positive control, where the test result was represented as a percentage of activity relative to 2′,3′-cGAMP at a concentration of 20 μM.

SMILES | Emax at 20 µM [%]
COc1cc2cc(C(=O)CCC(=O)O)[se]c2cc1OC [I-1, 4-(5,6-dimethoxybenzo[b]selenophene-2-yl)-4-oxobutanoic acid] | 259
COc1cc2cc(C(=O)CC(C)C(=O)O)[se]c2cc1OC (stereo not drawn) [I-2, 4-(5,6-dimethoxybenzo[b]selenophene-2-yl)-2-methyl-4-oxo-butanoic acid] | 245
CCC(CC(=O)c1cc2cc(OC)c(OC)cc2[se]1)C(=O)O (stereo not drawn) [I-14, 4-(5,6-dimethoxybenzo[b]selenophene-2-yl)-2-ethyl-4-oxo-butanoic acid] | 260

System: not listed separately
Test: Stability of rat liver microsome within 2 h
Type: in vitro ADME
Settings: stability of rat liver microsome within 2 h
Text: as §1

SMILES | RLM @ 2 h (%)
COc1cc2cc(C(=O)CCC(=O)O)[se]c2cc1OC [I-1, 4-(5,6-dimethoxybenzo[b]selenophene-2-yl)-4-oxobutanoic acid] | >90
COc1cc2cc(C(=O)CC(C)C(=O)O)[se]c2cc1OC (stereo not drawn) [I-2, 4-(5,6-dimethoxybenzo[b]selenophene-2-yl)-2-methyl-4-oxo-butanoic acid] | >90
CCC(CC(=O)c1cc2cc(OC)c(OC)cc2[se]1)C(=O)O (stereo not drawn) [I-14, 4-(5,6-dimethoxybenzo[b]selenophene-2-yl)-2-ethyl-4-oxo-butanoic acid] | >90

System: RAW-Lucia cells
Test: Luciferase assay based on RAW-Lucia cells
Type: cell-based
Settings: 24 h at 37° C.
Description: as §2

SMILES | Agitation activity in luciferase assay, RAW-Lucia (agitation fold)
COc1cc2cc(C(=O)CCC(=O)O)[se]c2cc1OC [I-1, 4-(5,6-dimethoxybenzo[b]selenophene-2-yl)-4-oxobutanoic acid] | *** (*** represented an agitation fold of 20 or more)
COc1cc2cc(C(=O)CC(C)C(=O)O)[se]c2cc1OC (stereo not drawn) [I-2, 4-(5,6-dimethoxybenzo[b]selenophene-2-yl)-2-methyl-4-oxo-butanoic acid] | *** (*** represented an agitation fold of 20 or more)
CCC(CC(=O)c1cc2cc(OC)c(OC)cc2[se]1)C(=O)O (stereo not drawn) [I-14, 4-(5,6-dimethoxybenzo[b]selenophene-2-yl)-2-ethyl-4-oxo-butanoic acid] | *** (*** represented an agitation fold of 20 or more)

System: not listed separately
Test: Water solubility
Type: physicochemical
Settings: PBS, aqueous buffer; read-out: water solubility, PBS
Text: as §1

SMILES | solubility [µg/mL]
COc1cc2cc(C(=O)CCC(=O)O)[se]c2cc1OC [I-1, 4-(5,6-dimethoxybenzo[b]selenophene-2-yl)-4-oxobutanoic acid] | 1900 (≈ 5570 µM)
COc1cc2cc(C(=O)CC(C)C(=O)O)[se]c2cc1OC (stereo not drawn) [I-2, 4-(5,6-dimethoxybenzo[b]selenophene-2-yl)-2-methyl-4-oxo-butanoic acid] | 1000 (≈ 2810 µM)
CCC(CC(=O)c1cc2cc(OC)c(OC)cc2[se]1)C(=O)O (stereo not drawn) [I-14, 4-(5,6-dimethoxybenzo[b]selenophene-2-yl)-2-ethyl-4-oxo-butanoic acid] | 700 (≈ 1900 µM)

Same assay, conditions: water; read-out: water solubility, Water

SMILES | solubility [µg/mL]
COc1cc2cc(C(=O)CCC(=O)O)[se]c2cc1OC [I-1, 4-(5,6-dimethoxybenzo[b]selenophene-2-yl)-4-oxobutanoic acid] | 36 (≈ 106 µM)
COc1cc2cc(C(=O)CC(C)C(=O)O)[se]c2cc1OC (stereo not drawn) [I-2, 4-(5,6-dimethoxybenzo[b]selenophene-2-yl)-2-methyl-4-oxo-butanoic acid] | 30 (≈ 84.4 µM)
CCC(CC(=O)c1cc2cc(OC)c(OC)cc2[se]1)C(=O)O (stereo not drawn) [I-14, 4-(5,6-dimethoxybenzo[b]selenophene-2-yl)-2-ethyl-4-oxo-butanoic acid] | 28 (≈ 75.8 µM)
